Values of other authors, collected in PMC10017685 (Nature Communications, 2023).
Read-outs that look alike come from different tables or passages of the source.

System: human erythrocytes
Set-up: method as in DBAASP
Details: cited from earlier work
[1] = toxicity class label 1 or 0, meaning of the labels not given, DBAASP HC50 data, human erythrocytes, ref DBAASP

Sequence | Class (dedicated toxicity dataset used for toxicity classifier evaluation) [1] | Class (dedicated toxicity dataset used for toxicity classifier evaluation)
GFKKLLKGAAKALVKTVLF [DBAASP_4900] | 1 | 
GFKRIVQKIRDFLRNLV [DBAASP_11852] | 0 | 
GFKRIVQRIKDFLRNLV [DBAASP_6070] | 0 | 
GFLGSLLKTGLKVGSNLL [DBAASP_2293] | 0 | 
GFMSKVANFAKKFAKGGVNAIMNQK [DBAASP_5718] | 0 | 
GFRDVLKGAAKAFVKTVAGHIAN [DBAASP_2304] | 0 | 
GFRKIVQKIRDFLRNLV [DBAASP_11853] | 0 | 
GFWGKLFKLGLHGIGLLHLHL [DBAASP_999] | 0 | 
GFWGKLWEGVKNAI [DBAASP_3479] | 1 | 
GIFDVLKNLAKGVITSLAS [DBAASP_16392] | 0 | 
GIGGALLSFGKSALKGLAKGLAEHF [DBAASP_12131] | 0 | 
GIGKFLHSAKKFGKAFVGEIMNS [DBAASP_5368] | 0 | 
GIGKFLKKAKKFGKAFVKILKK [DBAASP_763] | 0 | 
GIGKHVGKALKGLKGLLKGLGEC [DBAASP_6804] | 0 | 
GIGKHVGKALKGLKGLLKGLGES [DBAASP_3359] | 0 | 
GIIKKIIKKIIKK [DBAASP_13882] | 0 | 
GIIKKIIKKIIKKI [DBAASP_4594] | 0 | 
GIKDLLKGAAKALVKTVLF [DBAASP_11234] | 0 | 
GIKDLLKGAAKALVKTVLK [DBAASP_11236] | 0 | 
GIKDWIKGAAKKLIKTVASHIANQ [DBAASP_2305] | 0 | 
GIKEFAHSLGKFGKAFVGGILNQ [DBAASP_3817] | 0 | 
GIKKWVKGVAKGVAKDLAKKIL [DBAASP_11866] | 0 | 
GILGKLWEGVKSIF [DBAASP_8864] | 0 | 
GILKSLLKKLKKIIAK [DBAASP_8908] |  | 0
GILKTIKSIASKLKRKAK [DBAASP_5476] | 0 | 

Sequence | Class (dedicated toxicity dataset used for toxicity classifier evaluation) [1] | Class (dedicated toxicity dataset used for toxicity classifier evaluation)
GILNTIKSIASKLKRKAK [DBAASP_5477] | 0 | 
GILSKLLKKLKKIIAK [DBAASP_8909] |  | 0
GILSSLLKKLKKIIAK [DBAASP_8905] |  | 0
GILSSLLKKLKKWIAK [DBAASP_8917] |  | 0
GILSSLLKKWKKIIAK [DBAASP_8916] |  | 0
GILSSLWKKLKKIIAK [DBAASP_8913] |  | 0
GILSSLWKKLKKWIAK [DBAASP_8918] |  | 0
GILSSLWKKPKKIIAK [DBAASP_8919] | 0 | 
GILSSWLKKLKKIIAK [DBAASP_8912] |  | 0
GIMISLMKKLAAHIAK [DBAASP_8898] | 0 | 
GIMSSLMKKLAAHIAK [DBAASP_8893] | 0 | 
GIMSSLMKKLAAHIKK [DBAASP_8896] |  | 0
GIMSSLMKKLAAIIAK [DBAASP_8899] | 0 | 
GIMSSLMKKLAKHIAK [DBAASP_8895] | 0 | 
GIMSSLMKKLAKIIAK [DBAASP_8900] | 0 | 
GIMSSLMKKLAKIIKK [DBAASP_8903] |  | 0
GIMSSLMKKLKAHIAK [DBAASP_8894] | 0 | 
GIMSSLMKKLKKHIAK [DBAASP_8897] | 0 | 
GIMSSLMKKLKKIIAK [DBAASP_8901] |  | 0
GIMSSLMKKLKKIIKK [DBAASP_8904] |  | 0
GIWDTIKSMGKVFAGAILQNL [DBAASP_700] | 1 | 
GIWDTIKSMGKVFAGKIKQNL [DBAASP_702] | 0 | 
GIWDTIKSMGKVFAGLILQNL [DBAASP_701] | 1 | 
GIWKTIKSMGKVFAGAIKQNL [DBAASP_705] | 0 | 
GIWKTIKSMGKVFAGAILQNL [DBAASP_704] | 0 | 

Sequence | Class (dedicated toxicity dataset used for toxicity classifier evaluation) [1] | Class (dedicated toxicity dataset used for toxicity classifier evaluation)
GIWKTIKSMGKVFAGKIKQNL [DBAASP_703] | 0 | 
GIWKTIKSMGKVFAGKILQNL [DBAASP_699] | 0 | 
GIWSSLLKKLKKIIAK [DBAASP_8911] | 0 | 
GKLGPLLKIAAKVGSKLL [DBAASP_11238] | 0 | 
GKLGPLLKIAAKVGSNLL [DBAASP_11237] | 0 | 
GKLSSLWKKLKKIIAK [DBAASP_8915] | 0 | 
GKWKKILGKLIR [DBAASP_3277] |  | 0
GLASTIGSLLGKFAKGGAQAFLQPK [DBAASP_2288] | 0 | 
GLFDIIKKIAESF [DBAASP_779] | 0 | 
GLFDIWAWWRWRR [DBAASP_10051] | 0 | 
GLFDIWKKLRWRR [DBAASP_10054] | 0 | 
GLFDIWKKWRWRR [DBAASP_10053] | 0 | 
GLFDIWKWWRWRR [DBAASP_10052] | 0 | 
GLFDKWAWWRWRR [DBAASP_10050] | 0 | 
GLFDVIKKLLKKIGGL [DBAASP_8593] | 1 | 
GLFDVIKKLLKKIKGL [DBAASP_8594] | 1 | 
GLFDVIKKVASVIGGL [DBAASP_1320] | 0 | 
GLFDVIKKVLKKIGGL [DBAASP_8592] | 1 | 
GLFGKILGVGKKVLCGLSGMC [DBAASP_2198] | 0 | 
GLGSVLGKALKIGANLL [DBAASP_3821] | 0 | 
GLKALKKVFKGIHKAIKLINKHVK [DBAASP_6932] | 0 | 
GLKALKKVFKGIHKAIKLINKHVQ [DBAASP_6931] | 0 | 
GLKALKKVFKGIHKAIKLINNHVQ [DBAASP_6929] | 0 | 
GLKALKKVFQGIHEAIKLINNHVQ [DBAASP_6923] | 0 | 
GLKALKKVFQGIHKAIKLINNHVQ [DBAASP_6928] | 0 | 

Sequence | Class (dedicated toxicity dataset used for toxicity classifier evaluation) [1] | Class (dedicated toxicity dataset used for toxicity classifier evaluation)
GLKEVAHSAKKFAKGFISGLTGS [DBAASP_5713] | 0 | 
GLKGLLGKALKGIGKHIGKAQGC [DBAASP_6808] | 0 | 
GLKKIFKAGLGSLKKGIAAHVAS [DBAASP_4412] | 0 | 
GLKKIFKAGLGSLVKGIAAHVAS [DBAASP_4408] | 0 | 
GLKKIFKAGLGSLVKGIAAHVAS [DBAASP_4416] | 1 | 
GLKKIFKAGLGSLVKGIKAHVAS [DBAASP_4414] | 0 | 
GLKKIFKKGLGSLVKGIAAHVAS [DBAASP_4410] | 0 | 
GLKLLLSLGLKLL [DBAASP_13848] | 0 | 
GLLDFFKGAGKELLTHLASQI [DBAASP_16390] | 0 | 
GLLDLLKGAGKGLLTHLASQI [DBAASP_16389] | 0 | 
GLLDLLKLLLKAAG [DBAASP_12756] | 0 | 
GLLDTLKGAAKNVVGSLASKVMEKL [DBAASP_4394] | 0 | 
GLLGKLLKIAAKVGKKLL [DBAASP_4927] | 1 | 
GLLGKLLKIAAKVGSNLL [DBAASP_4922] | 1 | 
GLLGLLGSVVSHVVPAIVGHF [DBAASP_2298] | 1 | 
GLLGPLLKIAAKVGKKLL [DBAASP_4925] | 0 | 
GLLGPLLKIAAKVGKNLL [DBAASP_4924] | 0 | 
GLLGPLLKIAAKVGSKLL [DBAASP_4926] | 0 | 
GLLGPLLKIAAKVGSNLL [DBAASP_3157] | 0 | 
GLLGPLLKIAKKVGSNLL [DBAASP_4923] | 0 | 
GLLKAIKTLL [DBAASP_3121] | 0 | 
GLLKFIKTLL [DBAASP_3138] | 0 | 
GLLKIIKTLL [DBAASP_3137] | 1 | 
GLLKKIKKLL [DBAASP_7429] | 0 | 
